Data set [1] relates to Liver microsomes. As to the kind of experiment: Clearance in rat liver microsomes. In kind it is ADME, Microsome.
In data set [2] the target is T1, Cannabinoid receptor 2 (Homo sapiens, UniProt P34972). The data set can be described thus: Agonist activity at human CB2 receptor expressed in yeast cells relative to HU210. In kind it is functional, cell-based.
The target of data set [3] is T1, Cannabinoid receptor 2. As to the kind of experiment: Agonist activity at human CB2 receptor expressed in yeast cells. The format is functional, cell-based.
Data set [4] has as its target T2, Cannabinoid receptor 1 (Homo sapiens, UniProt P21554). As to the kind of experiment: Agonist activity at human CB1 receptor expressed in yeast cells. In kind it is functional, cell-based.
The target of data set [5] is T2, Cannabinoid receptor 1. As to the kind of experiment: Agonist activity at human CB1 receptor expressed in yeast cells relative to HU210. In kind it is functional, cell-based.

T1 sequence (P34972 whole entry): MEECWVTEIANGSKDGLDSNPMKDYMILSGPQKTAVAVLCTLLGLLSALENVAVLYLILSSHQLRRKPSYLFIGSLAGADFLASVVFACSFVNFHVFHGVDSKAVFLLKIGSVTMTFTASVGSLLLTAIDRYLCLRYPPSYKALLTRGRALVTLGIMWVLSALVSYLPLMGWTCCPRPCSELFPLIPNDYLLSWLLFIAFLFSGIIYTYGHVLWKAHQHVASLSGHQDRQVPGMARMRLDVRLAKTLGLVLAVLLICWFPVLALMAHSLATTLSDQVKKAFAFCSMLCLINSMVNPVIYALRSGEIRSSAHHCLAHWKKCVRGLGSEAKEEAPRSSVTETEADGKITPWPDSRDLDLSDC
T2 sequence (P21554 whole entry): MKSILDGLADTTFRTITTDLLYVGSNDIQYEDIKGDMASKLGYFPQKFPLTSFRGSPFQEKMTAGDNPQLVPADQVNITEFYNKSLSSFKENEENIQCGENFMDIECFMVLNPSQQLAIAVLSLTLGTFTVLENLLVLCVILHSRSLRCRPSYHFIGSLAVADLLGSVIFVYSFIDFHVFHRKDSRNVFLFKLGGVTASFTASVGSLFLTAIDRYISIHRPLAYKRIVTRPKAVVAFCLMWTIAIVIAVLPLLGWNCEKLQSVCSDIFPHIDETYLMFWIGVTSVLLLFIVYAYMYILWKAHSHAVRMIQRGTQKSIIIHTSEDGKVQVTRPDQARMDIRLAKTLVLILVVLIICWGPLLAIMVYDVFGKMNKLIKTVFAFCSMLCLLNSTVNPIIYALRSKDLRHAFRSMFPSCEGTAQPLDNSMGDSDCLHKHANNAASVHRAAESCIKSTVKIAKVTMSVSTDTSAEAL

With `Clc1cccc(-c2ccc(N3CCCOCC3)nc2)c1Cl`, in data set [1], the CL amounted to 27 mL/min/g. This compound also came in with an Efficacy in data set [2] of 87%. Moreover, the EC50 (usually the midpoint of the concentration-response curve) in data set [3] is 63.1 nM.

`CC1CC(C)CN(c2ccc(-c3cccc(Cl)c3Cl)cn2)C1` (stereo not given) displayed an Efficacy in data set [2] of 73%. Besides, the EC50 in data set [3] was 501 nM.

Consider `Clc1ccc(-c2ccc(N3CCOCC3)nc2)c(Cl)c1`, for which the EC50 in data set [3] is over 31600 nM.

`O=C1CCC(=O)N1c1ccc(-c2cccc(Cl)c2Cl)cn1`: the Efficacy in data set [2] was 19%. The same compound showed an EC50 in data set [3] of 3980 nM.

`Clc1ccc(-c2ccc(N3CCCCCC3)nc2)nc1` had a CL in data set [1] of 13 mL/min/g. For the same compound, the Efficacy in data set [2] was found to be 101%. Also, in data set [3], the EC50 is 100 nM.

In the case of `O=C(c1cc(-c2cccc(Cl)c2Cl)cnc1N1CCCCCC1)N1CCOCC1`, the EC50 was 10000 nM in data set [4] and 79.4 nM in data set [3]. The Efficacy in data set [5] was found to be 0.19%; in data set [2], 67%. The compound also came in with a CL in data set [1] of over 50 mL/min/g.

Take `Clc1cccc(-c2ccc(N3CCOCC3)nc2)c1Cl`: the CL in data set [1] is 9.5 mL/min/g. For the same compound, in data set [2], the Efficacy came out at 88%. This compound also had an EC50 in data set [3] of 79.4 nM.

`Cc1cnc(-c2ccc(N3CCCCCC3)nc2)c(C)c1` had an Efficacy in data set [2] of 102%. In addition, the EC50 in data set [3] was 1260 nM.

Consider `FC(F)(F)c1cc(-c2cccc(Cl)c2Cl)cnc1N1CCCCCC1`, for which the EC50 is over 31600 nM in data set [4] and 6310 nM in data set [3]. In data set [2], this compound registered an Efficacy of 12%.

On to `C[C@@H]1CC[C@H](C)N1c1ccc(-c2cccc(Cl)c2Cl)cn1`, for which the CL in data set [1] was determined as 11 mL/min/g. Besides, the Efficacy in data set [2] amounted to 37%. This compound also showed an EC50 in data set [3] of 251 nM.

In data set [2], `Clc1ccccc1-c1ccc(N2CCOCC2)nc1` returned an Efficacy of 43%. In data set [3], this compound had an EC50 of 398 nM.

`c1cc2occc2c(-c2ccc(N3CCCCCC3)nc2)n1`: the CL in data set [1] is over 50 mL/min/g. Further, the Efficacy in data set [2] was 80%. Besides, the EC50 in data set [3] was 63.1 nM.

In turn, `N#Cc1cccnc1-c1ccc(N2CCCCCC2)nc1` displayed an Efficacy in data set [2] of 75%. This compound gave an EC50 in data set [3] of 398 nM.

In data set [2], `Clc1cccnc1-c1ccc(N2CCCCCC2)nc1` displayed an Efficacy of 103%. Also, the EC50 in data set [3] was 501 nM.

On to `Nc1cccnc1-c1ccc(N2CCCCCC2)nc1`, for which the Efficacy in data set [2] came to 91%. The compound further showed an EC50 in data set [3] of 1000 nM.

In data set [2], `Cc1cccnc1-c1ccc(N2CCCCCC2)nc1` displayed an Efficacy of 86%. Besides, the midpoint of the response in data set [3], the EC50, lay at 794 nM.

Consider `Clc1cccc(-c2ccc(N3CCOCC3)nc2)c1`, for which the Efficacy in data set [2] came out at 20%. In data set [3], this compound had an EC50 of 1000 nM.

With `CN(C)C(=O)c1cc(-c2cccc(Cl)c2Cl)cnc1N1CCCCCC1`, the EC50 in data set [4] is over 31600 nM; in data set [3] it was 794 nM. The Efficacy in data set [2] came out at 37%.

In turn, `Fc1cccc(-c2ccc(N3CCOCC3)nc2)c1F` had an Efficacy in data set [2] of 58%. Further, a half-maximal effect in data set [3] (EC50) was put at 251 nM.

The compound `Clc1ccc(Cl)c(-c2ccc(N3CCOCC3)nc2)c1` displayed an Efficacy in data set [2] of 25%. In data set [3], this compound had an EC50 of 631 nM.

The compound `Cc1ccc(N)c(-c2ccc(N3CCCCCC3)nc2)n1` registered an Efficacy in data set [2] of 86%. In addition, a half-maximal response in data set [3] (EC50) required 126 nM.

In data set [2], `Clc1cnc(-c2ccc(N3CCCCCC3)nc2)c(Cl)c1` had an Efficacy of 100%. In data set [3], this compound showed an EC50 of 316 nM.

`N#Cc1cc(-c2cccc(Cl)c2Cl)cnc1N1CCCCCC1`: the values for the EC50 in data set [4] and in data set [3] were over 31600 nM and 3980 nM, respectively. In data set [2], the Efficacy is 41%.

The compound `Clc1cccc(-c2ccc(N3CCSCC3)nc2)c1Cl` showed an Efficacy in data set [2] of 93%. The same compound had an EC50 in data set [3] of 158 nM.

As to `N#Cc1cc(N2CCCCCC2)ncc1-c1cccc(Cl)c1Cl`, the EC50 in data set [4] was 10000 nM; in data set [3], 100 nM. Also, the Efficacy in data set [5] was 13%; in data set [2], 86%. In data set [1], this compound registered a CL of over 50 mL/min/g.

`Cc1c(Cl)cccc1-c1ccc(N2CCOCC2)nc1` came in with an Efficacy in data set [2] of 73%. Also, in data set [3], a half-maximal effect (EC50) was put at 501 nM.

As to `Fc1ccc(-c2ccc(N3CCOCC3)nc2)c(F)c1`, in data set [3], the EC50 was over 31600 nM.

`c1ccc(-c2ccc(N3CCCCCC3)nc2)nc1`: the Efficacy in data set [2] came out at 29%. Moreover, the EC50 in data set [3] was 10000 nM.

For `O=C1CCCN1c1ccc(-c2cccc(Cl)c2Cl)cn1`, in data set [2], the Efficacy is 59%. This compound gave an EC50 in data set [3] of 251 nM.

For `Clc1cccc(-c2ccc(N3CCCCCC3)nc2)c1Cl`, the values for the EC50 in data set [4] and in data set [3] were 10000 nM and 39.8 nM, respectively. Further, the figures for the Efficacy in data set [5] and in data set [2] were 4% and 104%, respectively. Further, in data set [1], the CL turned out to be 30 mL/min/g.

For the compound `CCCCNc1ccc(-c2cccc(Cl)c2Cl)cn1`, in data set [2], the Efficacy worked out at 88%. The same compound had an EC50 in data set [3] of 79.4 nM.

In the case of `FC(F)(F)c1cc(N2CCCCCC2)ncc1-c1cccc(Cl)c1Cl`, the EC50 in data set [4] is over 31600 nM; in data set [3], 2510 nM. The Efficacy in data set [2] was 79%.

The compound `Clc1ccc(-c2ccc(N3CCOCC3)nc2)cc1Cl` came in with an Efficacy in data set [2] of 11%. In data set [3], this compound showed an EC50 of 3980 nM.

For the compound `O=C(O)c1cc(-c2cccc(Cl)c2Cl)cnc1N1CCCCCC1`, the results for the EC50 in data set [4] and in data set [3] were over 31600 nM and 1580 nM, respectively. The Efficacy in data set [2] was determined as 41%.

For the origin of these results see ChEMBL document CHEMBL1156134, “2-Amino-5-aryl-pyridines as selective CB2 agonists: synthesis and investigation of structure-activity relationships” (Bioorg Med Chem Lett, 2009).
